What was measured:
Hepatotoxicity [1] = system: Hepatotoxicity;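 for HepSE bilirubinemia: bilirubinemia hepatic side effect score drawn from the DILIps training data, a prediction system for drug-induced liver injury; call rule not given here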;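 for HepSE cholecystitis: Cholecystitis-related hepatic side effect score drawn from the DILIps (drug-induced liver injury prediction) training data set; call rule not given here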;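 for HepSE cholelithiasis: hepatic side effect score for cholelithiasis, drawn from the DILIps training data for predicting drug-induced liver injury; call rule not given here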;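 for HepSE cirrhosis: cirrhosis hepatic side effect score taken from the DILIps (drug-induced liver injury prediction) training set; call rule not given here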;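 for HepSE elevated liver function tests: hepatic side effect score for raised liver function tests, as recorded in the DILIps training set used for predicting drug-induced liver injury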; for HepSE hepatic failure: call rule not given here;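 for HepSE hepatomegaly: hepatic side effect score for hepatomegaly, taken from the training set of the DILIps drug-induced liver injury prediction system; call rule not given here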
Hepatotoxicity [2] = system: Hepatotoxicity; remark: listed apart in the source;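 for HepSE bilirubinemia: bilirubinemia hepatic side effect score drawn from the DILIps training data, a prediction system for drug-induced liver injury; call rule not given here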;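 for HepSE cholecystitis: Cholecystitis-related hepatic side effect score drawn from the DILIps (drug-induced liver injury prediction) training data set; call rule not given here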;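 for HepSE cholelithiasis: hepatic side effect score for cholelithiasis, drawn from the DILIps training data for predicting drug-induced liver injury; call rule not given here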;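 for HepSE cirrhosis: cirrhosis hepatic side effect score taken from the DILIps (drug-induced liver injury prediction) training set; call rule not given here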;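 for HepSE elevated liver function tests: hepatic side effect score for raised liver function tests, as recorded in the DILIps training set used for predicting drug-induced liver injury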; for HepSE hepatic failure: call rule not given here
Hepatotoxicity [3] = system: Hepatotoxicity; remark: listed apart in the source;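 for HepSE bilirubinemia: bilirubinemia hepatic side effect score drawn from the DILIps training data, a prediction system for drug-induced liver injury; call rule not given here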;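 for HepSE cholecystitis: Cholecystitis-related hepatic side effect score drawn from the DILIps (drug-induced liver injury prediction) training data set; call rule not given here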;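 for HepSE cholelithiasis: hepatic side effect score for cholelithiasis, drawn from the DILIps training data for predicting drug-induced liver injury; call rule not given here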;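 for HepSE cirrhosis: cirrhosis hepatic side effect score taken from the DILIps (drug-induced liver injury prediction) training set; call rule not given here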;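 for HepSE elevated liver function tests: hepatic side effect score for raised liver function tests, as recorded in the DILIps training set used for predicting drug-induced liver injury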; for HepSE hepatic failure: call rule not given here
Hepatotoxicity [4] = system: Hepatotoxicity; remark: listed apart in the source;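 for HepSE bilirubinemia: bilirubinemia hepatic side effect score drawn from the DILIps training data, a prediction system for drug-induced liver injury; call rule not given here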;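 for HepSE cholecystitis: Cholecystitis-related hepatic side effect score drawn from the DILIps (drug-induced liver injury prediction) training data set; call rule not given here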;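 for HepSE cholelithiasis: hepatic side effect score for cholelithiasis, drawn from the DILIps training data for predicting drug-induced liver injury; call rule not given here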;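 for HepSE cirrhosis: cirrhosis hepatic side effect score taken from the DILIps (drug-induced liver injury prediction) training set; call rule not given here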;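 for HepSE elevated liver function tests: hepatic side effect score for raised liver function tests, as recorded in the DILIps training set used for predicting drug-induced liver injury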; for HepSE hepatic failure: call rule not given here
Hepatotoxicity [5] = system: Hepatotoxicity; remark: listed apart in the source; for HepSE hepatic failure: call rule not given here
Hepatotoxicity [6] = system: Hepatotoxicity; remark: listed apart in the source; for HepSE hepatic failure: call rule not given here
Hepatotoxicity [7] = system: Hepatotoxicity; remark: listed apart in the source
Hepatotoxicity [8] = system: Hepatotoxicity; remark: listed apart in the source
Hepatotoxicity [9] = system: Hepatotoxicity; remark: listed apart in the source
Hepatotoxicity [10] = system: Hepatotoxicity; remark: listed apart in the source
Hepatotoxicity [11] = system: Hepatotoxicity; remark: listed apart in the source
Hepatotoxicity [12] = system: Hepatotoxicity; remark: listed apart in the source
Hepatotoxicity [13] = system: Hepatotoxicity; remark: listed apart in the source
Hepatotoxicity [14] = system: Hepatotoxicity; remark: listed apart in the source

Molecule	HepSE_bilirubinemia (Hepatotoxicity [1])	HepSE_cholecystitis (Hepatotoxicity [2])	HepSE_cholelithiasis (Hepatotoxicity [3])	HepSE_cirrhosis (Hepatotoxicity [4])	HepSE_elevated liver function tests (Hepatotoxicity [5])	HepSE_hepatic failure (Hepatotoxicity [6])	HepSE_hepatic necrosis (Hepatotoxicity [7])	HepSE_hepatitis (Hepatotoxicity [8])	HepSE_hepatomegaly (Hepatotoxicity [9])	HepSE_jaundice (Hepatotoxicity [10])	HepSE_liver disease (Hepatotoxicity [11])	HepSE_liver fatty (Hepatotoxicity [12])	HepSE_liver function tests abnormal (Hepatotoxicity [13])	HepSE_Combined Scores (Hepatotoxicity [14])
CC(=O)OCC(CCn1cnc2cnc(N)nc21)COC(C)=O [FAMCICLOVIR]	1	0	0	0	0	0	0	0	0	1	0	0	1	3
CN1CCCC(n2nc(Cc3ccc(Cl)cc3)c3ccccc3c2=O)CC1 (configuration not stated) [AZELASTINE]	0	0	0	0	0	0	0	0	0	0	0	0	0	0
CN[C@H](CC(C)C)C(=O)N[C@H]1C(=O)N[C@@H](CC(N)=O)C(=O)N[C@H]2C(=O)N[C@H]3C(=O)N[C@H](C(=O)N[C@H](C(=O)O)c4cc(O)cc(O)c4-c4cc3ccc4O)[C@H](O)c3ccc(c(Cl)c3)Oc3cc2cc(c3O[C@@H]2O[C@H](CO)[C@@H](O)[C@H](O)[C@H]2O[C@H]2C[C@](C)(N)[C@H](O)[C@H](C)O2)Oc2ccc(cc2Cl)[C@H]1O [VANCOMYCIN]	0	0	0	0	0	0	0	0	0	0	0	0	0	0
CC1(C)S[C@@H]2[C@H](NC(=O)[C@H](N)c3ccccc3)C(=O)N2[C@H]1C(=O)O [AMPICILLIN]	0	0	0	0	0	0	0	0	0	0	0	0	0	0
CN(C)c1ccc(O)c2c1C[C@H]1C[C@H]3[C@H](N(C)C)C(O)=C(C(N)=O)C(=O)[C@@]3(O)C(O)=C1C2=O [MINOCYCLINE]	1	0	0	0	0	1	0	1	0	1	0	0	0	4
CN1CCN(C2=Nc3ccccc3Oc3ccc(Cl)cc32)CC1 [LOXAPINE]	0	0	0	0	0	0	0	1	0	1	0	0	0	2
HEPARIN	0	0	0	0	0	0	0	0	0	0	1	0	0	1
CNC(=O)c1c(I)c(NC(C)=O)c(I)c(C(=O)O)c1I [IOTHALAMIC ACID]	0	0	0	0	0	0	0	0	0	0	0	0	0	0
CC(C(=O)O)c1ccc(C(=O)c2cccs2)cc1 (configuration not stated) [SUPROFEN]	0	0	0	0	0	0	0	0	0	0	0	0	0	0
Cc1nnc2n1-c1ccc(Cl)cc1C(c1ccccc1)=NC2 [ALPRAZOLAM]	0	0	0	0	0	1	0	1	0	1	0	0	0	3
N[C@@H](Cc1cc(I)c(Oc2cc(I)c(O)c(I)c2)c(I)c1)C(=O)O [LEVOTHYROXINE]	0	0	0	0	0	0	0	0	0	0	0	0	0	0
CN(C)CCC(c1ccc(Cl)cc1)c1ccccn1 (configuration not stated) [CHLORPHENIRAMINE]	0	0	0	0	0	0	0	0	0	0	0	0	0	0
O=C1C(CC[S+]([O-])c2ccccc2)C(=O)N(c2ccccc2)N1c1ccccc1 (configuration not stated) [SULFINPYRAZONE]	0	0	0	0	0	0	0	0	0	0	0	0	0	0
